11 compounds from ChEMBL document CHEMBL1201862, “PubChem BioAssay data set” (2004) can be followed below.

Common to all, as to test: NCI anticancer screen, dose series, 48 h
Experiment [1] relates to SF-539.
The test system of experiment [2] is NCI-H460.
The test system of experiment [3] is TK-10.
Experiment [4] has as its system MOLT-4.
Experiment [5] relates to IGROV-1.
Experiment [6] has as its system U-251.
The subject of experiment [7] is SN12C.
Experiment [8] concerns Malme-3M.
Experiment [9] has as its system SK-OV-3.
In experiment [10] the test system is M14.
For experiment [11], the system named is HOP-62.
The subject of experiment [12] is SNB-75.
Experiment [13] deals with NCI-H226.
Experiment [14] concerns OVCAR-3.
Experiment [15] deals with UO-31.
The test system of experiment [16] is HOP-92.
Experiment [17] deals with HCC 2998.
Experiment [18] deals with ACHN.
Experiment [19] deals with LOX IMVI.
For experiment [20], the system named is RXF 393.

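Protocol summary: plate cells (96-well), add compound at 5 concentrations, incubate 48 h, interpolate endpoints linearly. GI50 marks 50% less growth.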 The source made the active and inactive calls. Cut-off read from the data, not from the text of the source: active = GI50 up to about 1.1 µM and inactive = higher.

As for `Cc1cccc(C)c1NC(=O)CCCC(=O)C1/C(=N/NC(=O)CC#N)CCC/C1=N\NC(=O)CC#N` (stereo not given), the GI50 in experiment [1], in experiment [2], in [3], in experiment [4], in experiment [5] and in experiment [6] was > 100 µM (inactive) each time. For the same compound, the GI50 in [7], in [8], in [9], in [10], in [11] and in experiment [12] was > 100 µM (inactive) each time. Further, the GI50 in experiment [13] is > 100 µM (inactive); in [14], > 100 µM (inactive); in experiment [15], > 100 µM (inactive); in [16], 48.8 µM (inactive); in [17], > 100 µM (inactive); in experiment [18], > 100 µM (inactive).

`CCCCC/C=C1\CCC(CN(C)C)C1=O` (stereo not given): the GI50 is 10.9 µM (inactive) in experiment [1]; 31.5 µM (inactive) in experiment [2]; > 23.4 µM (inactive) in experiment [3]; 1.95 µM (inactive) in [4]; 17.5 µM (inactive) in experiment [5]; 8.2 µM (inactive) in experiment [6]. Also, the GI50 was 14.7 µM (inactive) in experiment [7]; 14.6 µM (inactive) in [8]; 15 µM (inactive) in experiment [9]; 14.1 µM (inactive) in experiment [10]; 17.7 µM (inactive) in [11]; 16.2 µM (inactive) in experiment [12]. For the same compound, the GI50 was 15.5 µM (inactive) in experiment [13]; 15.6 µM (inactive) in [14]; 17 µM (inactive) in experiment [15]; 11.5 µM (inactive) in experiment [16]; 6.79 µM (inactive) in experiment [19]; 16.9 µM (inactive) in experiment [17]. Besides, in [18], the GI50 was 13.9 µM (inactive).

For `COP(=O)(OC)C(Nc1ccc(Cc2ccc(NC(c3ccco3)P(=O)(OC)OC)cc2)cc1)c1ccco1` (stereo not given), the GI50 in experiment [1] is 4.79 µM (inactive); in experiment [2] it was > 100 µM (inactive); in experiment [3], 8.77 µM (inactive); in experiment [4], > 100 µM (inactive); in [5], 31.4 µM (inactive); in experiment [6] it was 5.33 µM (inactive). The GI50 was 97.1 µM (inactive) in [7]; 47.9 µM (inactive) in experiment [8]; 18.8 µM (inactive) in experiment [9]; 38.1 µM (inactive) in experiment [10]; 4.62 µM (inactive) in [11]; 5.83 µM (inactive) in experiment [20]. In addition, the GI50 is 3.33 µM (inactive) in experiment [12]; > 100 µM (inactive) in experiment [13]; 85.1 µM (inactive) in experiment [14]; 79.1 µM (inactive) in experiment [15]; 6.47 µM (inactive) in experiment [16]; 82.2 µM (inactive) in experiment [19]. Moreover, the GI50 in experiment [18] was 20.9 µM (inactive).

Regarding `N#CCc1nnc(N)o1`, the GI50 in experiment [1], in experiment [3], in [4], in experiment [5], in experiment [6] and in experiment [7] was > 100 µM (inactive) in each case. The GI50 in experiment [8], in experiment [9], in experiment [10], in experiment [12], in experiment [13] and in experiment [14] was > 100 µM (inactive) throughout. Further, the GI50 in [15], in [16], in experiment [19] and in [18] was > 100 µM (inactive) each time.

Regarding `Cc1ccc(/C=c2\cc3oc(=O)c4cccc(c4-3)c2=O)cc1`, the GI50 was > 100 µM (inactive) in experiment [1]; > 100 µM (inactive) in experiment [2]; > 100 µM (inactive) in [3]; > 10 µM (inactive) in [4]; 88.3 µM (inactive) in experiment [5]; 63.7 µM (inactive) in [6]. The GI50 in experiment [7], in experiment [8], in experiment [9], in experiment [10], in experiment [11] and in experiment [12] was > 100 µM (inactive) each time. The GI50 in experiment [14] was 72.1 µM (inactive); in experiment [15], > 100 µM (inactive); in [16], > 100 µM (inactive); in [19], 61.4 µM (inactive); in [17], > 100 µM (inactive); in experiment [18], > 100 µM (inactive).

`C=C1CC(c2ccc(O)c(OC)c2)Oc2c(OC)cccc21` (stereo not given): the GI50 in experiment [1] was 21.3 µM (inactive); in [2], 35.1 µM (inactive); in experiment [3], 99.3 µM (inactive); in experiment [4] it was 25.1 µM (inactive); in experiment [5], 36 µM (inactive); in experiment [6], 30.7 µM (inactive). The GI50 in [7] was 34.4 µM (inactive); in experiment [9] it was > 100 µM (inactive); in experiment [10], 34 µM (inactive); in [11], 85.3 µM (inactive); in experiment [12], 39.2 µM (inactive); in experiment [13] it was > 100 µM (inactive). In addition, the GI50 in experiment [14] was 33.9 µM (inactive); in experiment [15], 60.3 µM (inactive); in [16] it was 14.4 µM (inactive); in experiment [17] it was > 100 µM (inactive); in experiment [18], 47.4 µM (inactive).

With `COC(=O)c1ccc(/C=C(\c2ccc([N+](=O)[O-])o2)S(=O)(=O)c2ccc(NC(C)=O)cc2)o1`, the GI50 was 4.2 µM (inactive) in experiment [1]; 18.5 µM (inactive) in [2]; 4.97 µM (inactive) in experiment [3]; 2.83 µM (inactive) in experiment [4]; 12.9 µM (inactive) in experiment [5]; 14.1 µM (inactive) in experiment [6]. Also, the GI50 in experiment [7] was 0.0579 µM (active); in experiment [8] it was 2.49 µM (inactive); in experiment [9], 19 µM (inactive); in [10] it was 4.14 µM (inactive); in [11], 14.4 µM (inactive); in experiment [20], 3.69 µM (inactive). The GI50 is 19.3 µM (inactive) in [12]; 3.04 µM (inactive) in experiment [13]; 5.9 µM (inactive) in [14]; 4.49 µM (inactive) in experiment [15]; 10.3 µM (inactive) in experiment [16]; 3.09 µM (inactive) in experiment [18].

Regarding `Cc1ccc([N+](=O)[O-])cc1S(=O)(=O)Nc1ccc(C2=NN(c3ccc([N+](=O)[O-])cc3[N+](=O)[O-])C(c3cccs3)C2)cc1` (stereo not given), the GI50 in experiment [1] is 27 µM (inactive); in experiment [3], 30 µM (inactive); in experiment [4] it was 13.9 µM (inactive); in experiment [5] it was 16.2 µM (inactive); in [6], 19.5 µM (inactive); in experiment [7], 18 µM (inactive). In addition, the GI50 in experiment [8] is 25.9 µM (inactive); in [9] it was 26.1 µM (inactive); in experiment [10] it was 15 µM (inactive); in experiment [11], 19.2 µM (inactive); in experiment [20] it was 18.6 µM (inactive); in experiment [12] it was 19.5 µM (inactive). Also, the GI50 was 22.2 µM (inactive) in [13]; 16.1 µM (inactive) in [14]; 23.8 µM (inactive) in experiment [15]; 16.1 µM (inactive) in experiment [16]; 18.3 µM (inactive) in [19]; 22.4 µM (inactive) in [18].

Turning to `Cc1c(CCl)c(=O)oc2c(C)c3occ(CCl)c(=O)c3cc12`, the GI50 in [1] was 21 µM (inactive); in experiment [2], > 100 µM (inactive); in experiment [3], > 100 µM (inactive); in experiment [4], 6.35 µM (inactive); in [5] it was 20.3 µM (inactive); in experiment [6] it was > 100 µM (inactive). The GI50 was 23.4 µM (inactive) in [7]; > 100 µM (inactive) in experiment [8]; > 100 µM (inactive) in experiment [9]; 17 µM (inactive) in experiment [10]; > 100 µM (inactive) in experiment [11]; 15.7 µM (inactive) in experiment [20]. Besides, the GI50 is 17.2 µM (inactive) in experiment [12]; 23.9 µM (inactive) in experiment [13]; > 100 µM (inactive) in [14]; 17.5 µM (inactive) in [15]; 14.9 µM (inactive) in experiment [19]; > 100 µM (inactive) in experiment [17]. For the same compound, in experiment [18], the GI50 was > 100 µM (inactive).

In the case of `Cc1cc2c3ccccc3n(C)c2c2c1C(=O)c1ccccc1C2=O`, the GI50 in experiment [1] was > 100 µM (inactive); in [3], 32.5 µM (inactive); in experiment [4], 5.83 µM (inactive); in experiment [5] it was 19.4 µM (inactive); in [7] it was 19.2 µM (inactive); in experiment [8], 18.2 µM (inactive). For the same compound, the GI50 in experiment [9] was 22.2 µM (inactive); in [10] it was 19.1 µM (inactive); in experiment [11], 20.4 µM (inactive); in experiment [12], 29.2 µM (inactive); in experiment [13], 10.8 µM (inactive); in experiment [14] it was 13.4 µM (inactive). Also, the GI50 in [15] was 10.5 µM (inactive); in experiment [16] it was 13.5 µM (inactive); in [17], 18.3 µM (inactive).

Take `NC(C(=O)O)C(O)c1c[nH]cn1` (stereo not given): the GI50 in [1], in experiment [2], in experiment [3], in experiment [4], in experiment [5] and in experiment [6] was > 100 µM (inactive) each time. For the same compound, the GI50 in experiment [7], in experiment [8], in experiment [9], in [10], in [11] and in experiment [20] was > 100 µM (inactive) throughout. In addition, the GI50 in experiment [12], in [13], in experiment [14], in experiment [16], in experiment [19] and in [18] was > 100 µM (inactive) throughout.
